Source: ChEMBL document CHEMBL1147361, “Microbial transformation of L-696,474, a novel cytochalasin as an inhibitor of HIV-1 protease” (J Nat Prod, 1993)

Biological target: Protease (Human immunodeficiency virus 1, UniProt Q9YQ12)
Assay: Inhibition of HIV1 protease

Chain of Protease (Q9YQ12 whole entry): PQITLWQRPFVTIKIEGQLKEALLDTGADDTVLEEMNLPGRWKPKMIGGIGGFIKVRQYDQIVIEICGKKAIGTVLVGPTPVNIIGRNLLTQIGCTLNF

Row | Compound | IC50
1 | C=C1[C@@H](C)[C@H]2[C@H](Cc3ccccc3)NC(=O)[C@]23[C@H](OC(C)=O)/C=C/[C@@H](C)C[C@@H](CO)C/C=C/[C@H]3[C@@H]1O | 22 µM
2 | C=C1[C@@H](C)[C@H]2[C@H](Cc3cccc(O)c3)NC(=O)[C@]23[C@H](OC(C)=O)/C=C/[C@@H](C)C[C@@H](CO)C/C=C/[C@H]3[C@@H]1O | 38 µM
3 | C=C1[C@@H](C)[C@H]2[C@H](Cc3ccccc3)NC(=O)[C@]23[C@H](OC(C)=O)/C=C/[C@@H](C)C[C@@](O)(CO)C/C=C/[C@H]3[C@@H]1O | 45 µM
4 | C=C1[C@@H](C)[C@H]2[C@H](Cc3cccc(O)c3)NC(=O)[C@]23[C@H](OC(C)=O)/C=C/[C@@H](C)C[C@@](O)(CO)C/C=C/[C@H]3[C@@H]1O | > 50 µM
5 | C=C1[C@@H](C)[C@H]2[C@H](Cc3ccc(O)c(O)c3)NC(=O)[C@]23[C@H](OC(C)=O)/C=C/[C@@H](C)C[C@@H](CO)C/C=C/[C@H]3[C@@H]1O | > 50 µM
6 | C=C1[C@@H](C)[C@H]2[C@H](Cc3ccc(O)cc3)NC(=O)[C@]23[C@H](OC(C)=O)/C=C/[C@@H](C)C[C@@H](CO)C/C=C/[C@H]3[C@@H]1O | 35 µM
7 | C=C1[C@@H](C)[C@H]2[C@H](Cc3ccccc3)NC(=O)[C@]23[C@H](OC(C)=O)/C=C/[C@@H](C)C[C@@H](C)C/C=C/[C@H]3[C@@H]1O | 3 µM
